# Source: patent US20260132125A1, “PESTICIDALLY ACTIVE FUSED BICYCLIC HETEROAROMATIC COMPOUNDS” (priority 2022, published 2026)
# Columns and labels:
# Assay type in all cases: in vivo
# Pseudoplusia includens = test: Example B9: Pseudoplusia includens (soybean looper), larvicide, feeding/contact, soybean plants; details: Chrysodeixis includens; for percent effect (mortality or growth inhibition) at 50 ppm: 120 h, L2 larvae, 5 days after infestation, read-out: effect in at least one of the two categories (mortality or growth inhibition)
# Procedure, shortened: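 Soybean plants sprayed, cut and held in dishes on wet filter paper; infested 1 d after application with 5 L2 larvae. Mortality and growth inhibition assessed 5 days after infestation; tested at 50 ppm.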
# Spodoptera littoralis = test: Example B6: activity against Spodoptera littoralis (Egyptian cotton leaf worm), cotton leaf discs; details: foliar; for percent control (mortality, anti-feedant effect or growth inhibition) at 200 ppm: 72 h, L1 larvae, 3 days after infestation, read-out: control (at least one of mortality, anti-feedant effect, growth inhibition)
# Procedure, shortened: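 Five L1 larvae per sprayed, dried cotton leaf disc on agar. Activity is counted when mortality, anti-feedant effect or growth inhibition exceeds the untreated sample at day 3.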
# Plutella xylostella [1] = test: Example B5: activity against Plutella xylostella (diamond back moth), artificial diet, eggs; details: 192 h, 8 days after infestation, read-out: effect in at least one of the two categories (mortality or growth inhibition)
# Procedure, shortened: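 Artificial diet in 24-well plates was treated with aqueous dilutions of DMSO stocks, dried, then infested with Plutella eggs. Mortality and growth inhibition were scored against untreated samples 8 days after infestation; application rate 200 ppm.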
# Chilo suppressalis = test: Example B1: activity against Chilo suppressalis (striped rice stemborer), artificial diet; details: for percent control (mortality, anti-feedant effect or growth inhibition) at 200 ppm: 144 h, L2 larvae, 6 days after infestation, read-out: control (at least one of mortality, anti-feedant effect, growth inhibition)
# Procedure, shortened: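 Diet-incorporation surface assay: aqueous dilutions of 10'000 ppm DMSO stock applied to artificial diet, dried; 6-8 L2 larvae/well; read day 6 post-infestation for mortality, antifeedant effect, growth inhibition vs untreated. Active if any category above untreated.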
# Plutella xylostella [2] = test: B14b: Plutella xylostella (diamond back moth), larvicide L3, feeding/contact, Chinese cabbage
# Excerpt: (§1) Activity of compounds P5, P17 and P21 according to the preparatory examples and of a compound from WO 21/083936 against Spodoptera littoralis (Example B6 above), Chilo suppressalis (Example B1 above), Diabrotica balteata (Example B14a below), Plutella xylostella (Example B14b below) and Pseudoplusia includens (Example B9 above) is summarized in Table B14. B14a: Diabrotica balteata (Corn root worm). Larvicide, feeding/contact 3 Corn seedlings were placed on wetted filter paper in plastic cups, and 3 ml of diluted test solutions were pipetted onto them. The cups were infested with 10 L2 larvae and checked for mortality and growth regulation 5 days after treatment. B14b: Plutella xylostella (Diamond back moth). Larvicide L3, feeding/contact Chinese cabbage plants were sprayed with diluted test solutions in an application chamber. Cut off leaves were placed into petri dishes with wetted filter paper and infested 1 day after application with 10 L3 larvae. Samples were assessed 4 days after infestation for mortality and growth regulation.
# Myzus persicae [3] = test: Example B4: activity against Myzus persicae (green peach aphid), intrinsic activity; details: 120 h, test rate 12 ppm, 5 days after infestation
# Procedure, shortened: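 Compounds from 10′000 ppm DMSO stocks were mixed into sucrose solution in 24-well plates sealed with Parafilm. Aphid-infested pea seedlings were set on the membrane and the plate inverted so aphids fed through it. Mortality scored 5 days after infestation.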
# Diabrotica balteata [4] = test: B14a: Diabrotica balteata (corn root worm), larvicide, feeding/contact, corn seedlings
# Excerpt: as §1
# Diabrotica balteata [5] = test: Example B2: activity against Diabrotica balteata (corn root worm), maize sprouts; details: 96 h, L2 larvae, 4 days after infestation, read-out: effect in at least one of the two categories (mortality or growth inhibition)
# Procedure, shortened: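 Maize sprouts on agar were sprayed with aqueous test solutions made from 10′000 ppm DMSO stocks, dried, then infested with 6–10 L2 larvae per well. Mortality and growth inhibition were scored against untreated samples 4 days after infestation, at an application rate of 200 ppm.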
# Euschistus heros = test: Example B3: activity against Euschistus heros (neotropical brown stink bug), soybean leaves; details: for percent effect (mortality or growth inhibition) at 200 ppm: 120 h, N2 nymphs, 5 days after infestation, read-out: effect in at least one of the two categories (mortality or growth inhibition)
# Procedure, shortened: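 Soybean leaves on agar sprayed with aqueous dilutions of DMSO stock (10′000 ppm), dried, then infested with N2 nymphs. Mortality and growth inhibition scored against untreated samples 5 days after infestation; application rate 200 ppm.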
# [6] = system: Carpocapsa (Cydia) pomonella; test: Example B10: Carpocapsa (Cydia) pomonella (codling moth), larvicide, feeding/contact, diet cubes; details: 336 h, L1 larvae, 14 days after infestation, read-out: effect in at least one of the two categories (mortality or growth inhibition)
# Protocol: Diet cubes coated with paraffin were sprayed with diluted test solutions in an application chamber. After drying off the treated cubes (10 replicates) were infested with 1 L1 larvae. Samples were incubated at 26-27° C. and checked 14 days after infestation for mortality and growth inhibition. The following compounds gave an effect of at least 80% in at least one of the two categories (mortality or growth inhibition) at an application rate of 50 ppm: […]
# Myzus persicae [7] = test: Example B7a: Myzus persicae feeding/contact activity, sunflower leaf discs; details: foliar, 144 h, mixed ages, 6 days after infestation
# Protocol: (§2) Sunflower leaf discs were placed onto agar in a 24-well microtiter plate and sprayed with aqueous test solutions prepared from 10′000 ppm DMSO stock solutions. After drying, the leaf discs were infested with an aphid population of mixed ages. The samples were assessed for mortality 6 days after infestation.
# Tetranychus urticae = test: Example B8: activity against Tetranychus urticae (two-spotted spider mite), bean leaf discs; details: foliar, 192 h, mixed population (mobile stages), 8 days after infestation
# Protocol: Bean leaf discs on agar in 24-well microtiter plates were sprayed with aqueous test solutions prepared from 10′000 ppm DMSO stock solutions. After drying the leaf discs were infested with a mite population of mixed ages. The samples were assessed for mortality on mixed population (mobile stages) 8 days after infestation.
# Myzus persicae [8] = test: Example B7b: Myzus persicae feeding/contact activity, eggplant leaf discs; details: foliar, 144 h, mixed ages, 6 days after infestation
# Protocol: as §2, with “Eggplant” for “Sunflower”
SMILES,percent effect (mortality or growth inhibition) at 50 ppm (Pseudoplusia includens) [%],"mortality at 0.8 ppm (Pseudoplusia includens; Pseudoplusia includens, 0.8 ppm) [%]",mortality at 12.5 ppm (Pseudoplusia includens; Pseudoplusia includens) [%],mortality at 3.12 ppm (Spodoptera littoralis) [%],"percent control (mortality, anti-feedant effect or growth inhibition) at 200 ppm (Spodoptera littoralis) [%]",percent effect (mortality or growth inhibition) at 200 ppm (Plutella xylostella [1]) [%],mortality at 3.12 ppm (Chilo suppressalis) [%],"percent control (mortality, anti-feedant effect or growth inhibition) at 200 ppm (Chilo suppressalis) [%]",mortality at 0.8 ppm (Plutella xylostella [2]) [%],mortality at 3 ppm (Plutella xylostella [2]) [%],mortality at 12 ppm (Myzus persicae [3]) [%],mortality at 0.8 ppm (Diabrotica balteata [4]) [%],percent effect (mortality or growth inhibition) at 200 ppm (Diabrotica balteata [5]) [%],mortality at 200 ppm (Euschistus heros) [%],percent effect (mortality or growth inhibition) at 200 ppm (Euschistus heros) [%],percent effect (mortality or growth inhibition) at 50 ppm [6] [%],mortality at 200 ppm (Myzus persicae [7]) [%],mortality at 200 ppm (Tetranychus urticae) [%],"mortality at 3 ppm (Pseudoplusia includens; Pseudoplusia includens, 3 ppm) [%]",mortality at 200 ppm (Myzus persicae [8]) [%]
"C[C@H](Nc1ncnc2c(C(F)(F)F)cc(Cl)cc12)c1ncnn1-c1cc(C(N)=O)ncn1 [Compound P5, 6-[5-[(1S)-1-[[6-chloro-8-(trifluoromethyl)quinazolin-4-yl]amino]ethyl]-1,2,4-triazol-1-yl]pyrimidine-4-carboxamide]",≥ 80,70,100,100,≥ 80,≥ 80,80,≥ 80,95,100,≥ 80,100,≥ 80,100,≥ 80,–,–,–,–,–
"C[C@H](Nc1ncnc2c(I)cc(Cl)cc12)c1ncnn1-c1cc(C(N)=O)ncn1 [Compound P13, 6-[5-[(1S)-1-[(6-chloro-8-iodo-quinazolin-4-yl)amino]ethyl]-1,2,4-triazol-1-yl]pyrimidine-4-carboxamide]",≥ 80,–,–,–,≥ 80,≥ 80,–,≥ 80,–,–,≥ 80,–,≥ 80,–,–,≥ 80,≥ 80,≥ 80,–,–
"C[C@H](Nc1ncnc2c(Cl)cc(C(F)(F)F)cc12)c1ncnn1-c1cc(C(N)=O)ncn1 [Compound P17, 6-[5-[(1S)-1-[[8-chloro-6-(trifluoromethyl)quinazolin-4-yl]amino]ethyl]-1,2,4-triazol-1-yl]pyrimidine-4-carboxamide]",≥ 80,–,100,100,≥ 80,≥ 80,40,≥ 80,100,100,≥ 80,100,≥ 80,80,≥ 80,≥ 80,–,≥ 80,80,–
"C[C@H](Nc1ncnc2c(C(F)(F)F)cc(Cl)cc12)c1ncnn1-c1cnc(C(N)=O)cn1 [Compound P21, 5-[5-[(1S)-1-[[6-chloro-8-(trifluoromethyl)quinazolin-4-yl]amino]ethyl]-1,2,4-triazol-1-yl]pyrazine-2-carboxamide]",≥ 80,–,40,100,≥ 80,≥ 80,0,≥ 80,–,100,≥ 80,65,≥ 80,–,–,–,–,–,–,≥ 80
"C[C@@H](c1ncnn1-c1cc(C(N)=O)ncn1)N(C)c1ncnc2c(C(F)(F)F)cc(Cl)cc12 [Compound P50, 6-[5-[(1S)-1-[[6-chloro-8-(trifluoromethyl)quinazolin-4-yl]-methyl-amino]ethyl]-1,2,4-triazol-1-yl]pyrimidine-4-carboxamide]",≥ 80,–,–,–,≥ 80,≥ 80,–,≥ 80,–,–,≥ 80,–,≥ 80,–,≥ 80,–,–,≥ 80,–,≥ 80
"C[C@H](Nc1ncnc2c(C(F)(F)F)cc(C(F)(F)F)cc12)c1ncnn1-c1ccc(C(N)=O)cn1 [WO 21/083936 P.157, reference compound]",–,–,10,0,–,–,0,–,–,65,–,35,–,–,–,–,–,–,–,–
